Experimental findings from US5582981A, “Method for identifying an oligonucleotide aptamer specific for a target” (priority 1994, dated 1996) are described below.

The data set relates to thrombin. The data set is described as follows: clotting time for thrombin-catalyzed conversion of fibrinogen to fibrin. The format is biochemical. To be noted: thrombin 10 nM, 7 mer at 20 μM; thrombin alone 24 sec. Here is the method: Clotting time for the thrombin-catalyzed conversion of fibrinogen (2.0 mg/ml in selection buffer) to fibrin at 37° C. was measured using a precision coagulation timer apparatus (Becton-Dickinson, Cat. nos. 64015, 64019, 64020). Thrombin (10 nM) incubated with fibrinogen alone clotted in 40 sec, thrombin incubated with fibrinogen and P1 nuclease (Boehringer-Mannheim, Indianapolis, Ind.) clotted in 39 sec, thrombin incubated with fibrinogen and aptamer clone #5 (200 nM) clotted in 115 sec, and thrombin incubated with fibrinogen, clone #5 (200 nM) and P1 nuclease clotted in 40 sec. All incubations were carried out at 37° C. using reagents prewarmed to 37° C. Aptamer DNA or, when present, P1 nuclease, was added to the fibrinogen solution prior to addition of thrombin.
Inhibition of thrombin activity was studied using a consensus-related sequence 7 mer, 5' GGTTGGG 3' (SEQ ID NO: 15), and a control 7 mer with the same base composition but different sequence (5' GGGGGTT 3') (SEQ ID NO: 16). Clotting times were measured using the timer apparatus as above. The thrombin clotting time in this experiment was 24 sec using thrombin alone (10 nM), 26 sec with thrombin and the control sequence at 20 μM and 38 sec with thrombin plus the consensus sequence at 20 μM, indicating specificity for thrombin inhibition at the level of the 7 mer.

Regarding “5' GGGGGTT 3' (chemistry not given here) [SEQ ID NO: 16]”, the thrombin clotting time came to 26 s.
Take “5' GGTTGGG 3' (chemistry not given here) [SEQ ID NO: 15]”: the thrombin clotting time turned out to be 38 s.
